# In paper PMC4379580 (Viruses, 2015):
# Legend:
# WT-His-P9-1 [1] = biological target: T1, WT-His-P9-1 (Southern rice black-streaked dwarf virus, UniProt B2LHU4); test: intrinsic fluorescence quenching titration; type: binding; conditions: 298 K, pH 7.4, 20 μM protein, excitation 275 nm, Hill equation
# T1 construct: protein encoded by first ORF of segment S9 (P9)
# TR-ΔN6-His-P9-1 = TR-ΔN6-His-P9-1 (Southern rice black-streaked dwarf virus, UniProt B2LHU4); conditions: 298 K, 20 μM protein, excitation 275 nm, Hill equation
# TR-ΔC23-His-P9-1 = TR-ΔC23-His-P9-1 (Southern rice black-streaked dwarf virus, UniProt B2LHU4); conditions: 298 K, 20 μM protein, excitation 275 nm, Hill equation
# WT-His-P9-1 [2] = biological target: WT-His-P9-1 (Southern rice black-streaked dwarf virus, UniProt B2LHU4, S138T); test: biochemical
compound,measurement,setting,value
"CCOP(=O)(OCC)C(Nc1nc2c(C)cccc2s1)c1ccccc1F (stereo not shown) [DFL, dufulin]",Binding parameters / KA (M^-1),WT-His-P9-1 [1],1 × 10^5.061
same,Binding parameters / KA (M^-1),TR-ΔN6-His-P9-1,1 × 10^6.421
same,Binding parameters / KA (M^-1),TR-ΔC23-His-P9-1,1 × 10^4.470
same,Kd,WT-His-P9-1 [2],9.73 µM
